Entries after “also recorded” stand apart in the source; their conditions may differ.

Data set [1] relates to healthy endothelial cells. Briefly: TSLP production by healthy endothelial cells with platelets treated with acetylsalicylic acid. It counts as cell-based, human. The following applies: doses 0, 10 and 1000 pg/ml. The text has this: FIG. 8: represents the in vitro TSLP production (pg/ml) by healthy endothelial cells in the presence of platelets from a first healthy non sclerodermic patient a second non sclerodermic patient previously treated with acetylsalicylic acid (aspirin, pg/ml) at a dose of 0, 10 and 1000 pg/ml.
The endothelial TSLP production is not inhibited by healthy patients platelets treated with acetylsalicylic acid (aspirin active metabolite) (see FIG. 8).

Data set [2] relates to patients with SSc. Particulars: cited from earlier work.
Data set [3] relates to mice models of scleroderma. The following applies: two mice models of scleroderma; cited from earlier work.
For data set [4], the system named is human normal microvascular endothelial cells. Briefly: TSLP secretion by endothelial cells co-incubated with platelets from patients treated by P2Y12 inhibitors. Particulars: clopidogrel 75 mg or ticagrelor 90 mg per day; platelets:EC 200:1, 24 hrs, ELISA. The data set is classed as cell-based. As to the method:
FIG. 7: represents TSLP secretion (in pg/ml: A, or in %: B) by endothelial cells after stimulation by, from left to right, platelets from healthy donors (HD, n=6), patients treated by clopidogrel (n=3) or by ticagrelor (n=4). […] Supernatants were harvested and frozen before analysis. TSLP concentration was determined by ELISA.
Briefly, platelets purified from healthy normal subject, or non-sclerodermic patients treated with clopidogrel (75 mg par jour), or a non-sclerodermic patient treated with ticagrelor (90 mg par jour), for preventing atherothrombotic events, were co-incubated with human normal microvascular endothelial cells at a 200:1 ratio for 24 hrs. Cell culture supernatant was collected and TSLP content was measured using a dedicated commercial ELISA kit.

Data set [5] concerns bleomycin-injected mice.
In data set [6] the test system is human dermal fibroblasts. Briefly: Pro-fibrotic mRNA profile of activated human dermal fibroblasts (RT-qPCR). The following applies: for MMP-1 mRNA expression / collagen1A1 mRNA / collagen/collagenase ratio (COL1A1 on MMP-1 mRNA): HD dermal fibroblasts; for MMP-1 mRNA expression / collagen1A1 mRNA / MCP-1 mRNA expression / collagen/collagenase ratio (COL1A1 on MMP-1 mRNA): 48 h; for MCP-1 mRNA expression: human dermal fibroblasts. It counts as cell-based. The method, then: Human dermal fibroblasts were isolated from healthy skin and incubated 48 h with DMEM, IL1β, recombinant TSLP or TGFβ1. (A) Quantification of Col1A1 mRNA from activated fibroblasts using RT-qPCR from 3 different healthy donors was expressed in ΔΔCT with DMEM as the baseline condition. (B) Quantification of MMP-1 mRNA from activated fibroblasts using RTqPCR, results of 3 different healthy donors. (C) Ratio of COL1A1 on MMP-1 (collagenase) mRNA from activated normal fibroblasts using RT-qPCR, results of 3 different healthy donors (left panel) and 3 SSc patients (right panel). Among SSc patients, two patients were dcSSc and fibroblasts came from TSLP+ fibrotic skin (patients #1 and 2), the other was a IcSS and fibroblasts came from TSLP-low fibrotic skin (patient #3). (D) Quantification of MCP-1 from activated normal fibroblasts using RT-qPCR, results of 3 different donors. Kruskal Wallis test was used to compare the mean of mRNA expression levels. *P<0.05.
Fibroblasts were obtained from […] skin biopsy samples from 3 healthy donors as described elsewhere (Truchetet M E, Brembilla N C, Montanari E, et al. Interleukin-17A+ cell counts are increased in systemic sclerosis skin and their number is inversely correlated with the extent of skin involvement. Arthritis Rheum 2013; 65:1347-1356 ([24])).
Total RNA was isolated from trypsinized fibroblasts with the NucleoSpin RNA II extraction system (Macherey-Nagel, Duren, Germany) and cDNA synthesized from […] of total RNA using random hexamers and Superscript III reverse transcriptase (Invitrogen, Carlsbad, Calif.) according to manufacturer's instructions. Gene expression was quantified using SYBR green performed on a SDS 7900 HT instrument (Applied Biosystems). Specific primer pairs for each gene described in supplementary material (Datta A, Alexander R, Sulikowski M G, et al. Evidence for a functional thymic stromal lymphopoietin signaling axis in fibrotic lung disease. J Immunol 2013; 191:4867-4879 ([25]); Brembilla N C, Montanari E, Truchetet M E, et al. Th17 cells favor inflammatory responses while inhibiting type I collagen deposition by dermal fibroblasts: differential effects in healthy and systemic sclerosis fibroblasts. Arthritis Res Ther 2013; 15:R151 ([26]); Yoda A, Yoda Y, Chiaretti S, et al. Functional screening identifies CRLF2 in precursor B-cell acute lymphoblastic leukemia. Proc Natl Acad Sci USA 2010; 107:252-257 ([27]); Le Q T, Gomez G, Zhao W, et al. Processing of human protryptase in mast cells involves cathepsins L, B, and C. J Immunol 2011; 187:1912-1918 ([28])). Each reaction was performed in triplicates. […] Oligonucleotides were obtained from Sigma-Aldrich. Differences were calculated with the threshold cycle (Ct) and the comparative Ct method for relative quantification.

Data set [7] deals with human dermal microvascular endothelial cells (HDMEC). Briefly: TSLP production by human dermal microvascular EC stimulated with cytokines/reagents (ELISA, RTqPCR). The data set is classed as cell-based. The method, then: FIG. 4: IL1β-stimulated human dermal microvascular endothelial cells (HDMEC) produce TSLP. Normal HDMEC were purified from normal skin (plastic surgery) and stimulated 24 hrs with (A) cytokines potentially involved in SSc and the TLR4 agonist LPS or (B) increasing amount of IL1β (from 10 to 50 ng/ml) in complete MV-2 medium (M). Supernatants were harvested and TSLP content was measured by dedicated ELISA from eBioscience. Mean and SD from 3 (A) and 6 (B) independent experiments. (C) Quantification of TSLP mRNA from IL1β (50 ng/mL) activated HDMEC using RTqPCR, one representative experiment out of 3. *P<0.05 and ***P=0.0004 using Kruskal Wallis test.
(§1) (A) 70000 HDMEC were cultured for 24 hrs in 24-well culture plate in MV-2 complete medium along with increasing amount of purified non-activated platelets (white bars) or adenosine diphosphate-activated platelets (black bars) (from 10 to 200 platelets for 1 HDMEC). […] (B) HDMEC were stimulated with ADP-activated platelets with or without anti-IL1β blocking antibody. Condition “platelet-” is a comparison without platelets. […] (C) HDMEC were stimulated with increasing doses of serotonin (from 0 to 90 ng/ml). A Wilcoxon test was used. (*p=0.013). (D) HDMEC were stimulated with ADP-activated platelets (ratio HDMEC:platelets=1:200) with or without blocking anti-IL1β with or without 5HT-receptors (5HTR2a and 5HTR2b) blocking antibodies. […] Supernatants were harvested and TSLP content was measured using dedicated ELISA. Results are mean and SEM from 3 independent experiments.
(§2) TSLP levels in cell culture supernatants or serum was quantified using an ELISA kit from eBiosciences following the manufacturer's instruction.
(§3) Human dermal microvascular EC were cultured in complete MV2 growth medium in a 96 well-plates with flat bottom (20000 cells per well in 200 μl) and allowed to stand overnight before adding different reagents (IL-1β, IL-4, IL-13, TNF-α, IFN-γ, LPS, 5HT or Tryptase) or platelets ADP-activated or not for 24 h at 37° C. […]
Background: In an ELISA, binding on a coated surface is turned into a signal by an enzyme label.

In data set [8] the target is P2Y12 receptor (Homo sapiens, UniProt Q9H244). Particulars: cited from earlier work.
The subject of data set [9] is human dermal microvascular endothelial cells (HDMEC). As to the kind of experiment: Platelet-induced TSLP production in platelet/EC co-culture with blocking antibodies. The data set is classed as cell-based. The following applies: ADP-activated platelets. The method, then:
as §1, §2, §3

Sequence of P2Y12 receptor (Q9H244 whole entry): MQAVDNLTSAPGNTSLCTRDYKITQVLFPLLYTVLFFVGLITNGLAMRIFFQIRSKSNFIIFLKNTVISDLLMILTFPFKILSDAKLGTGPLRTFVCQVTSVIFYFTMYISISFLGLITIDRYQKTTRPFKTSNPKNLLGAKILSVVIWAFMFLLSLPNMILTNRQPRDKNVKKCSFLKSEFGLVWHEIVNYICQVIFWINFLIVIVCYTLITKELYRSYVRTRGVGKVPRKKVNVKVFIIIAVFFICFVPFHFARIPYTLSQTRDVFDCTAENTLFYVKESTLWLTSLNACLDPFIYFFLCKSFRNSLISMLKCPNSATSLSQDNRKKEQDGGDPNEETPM

On to `CC(=O)Oc1ccccc1C(=O)O` [acetylsalicylic acid], for which the “endothelial TSLP production with acetylsalicylic acid-treated platelets” value is recorded as “not inhibited” in data set [1] and “not observed” in data set [1] (listed as aspirin).

For `COC(=O)[C@H](c1ccccc1Cl)N1CCc2sccc2C1` [clopidogrel], the “markers of endothelial function and new digital ulcers” value in data set [2] was “may worsen markers of endothelial function and associate with development of new digital ulcers”. Also, the fibrosis entry in [3] was “reduces fibrosis”. For the same compound, the “TSLP production by endothelial cells induced by platelets of treated patients” value in [4] was “failed to induce TSLP production; also recorded: can block the pro-fibrotic TSLP molecule expression”. Moreover, in data set [5] (clopidogrel 25 mg/kg/d per os from 15 days before bleomycin 30 μg/mice s.c.), the dermal thickness result is reported as “reduces the dermal thickness”. For the same compound, the “skin fibrotic effect of Bleomycin” value in data set [5] (clopidogrel pre-treatment 25 mg/kg/d per os) is on record as “significantly reduces”. Moreover, the “development of digital ulcers” value in [5] (preventive treatment of mice before the establishment of fibrosis) is listed as “not associated with development of digital ulcers”.

For the compound “TGFβ: cytokine used as control condition on fibroblasts”, in data set [6], the “MMP-1 mRNA expression” value is 0.56±0.14 fold increase vs medium condition, the “collagen1A1 mRNA” value was 5.35±0.9 fold increase vs medium condition and the “MCP-1 mRNA expression” value is given as 0.31±0.09 fold increase vs medium condition.

`CCCSc1nc(N[C@@H]2C[C@H]2c2ccc(F)c(F)c2)c2nnn([C@@H]3C[C@H](OCCO)C(O)C3O)c2n1` (stereo partly drawn) [ticagrelor]: the “TSLP production by endothelial cells induced by platelets of treated patients” value in data set [4] was “failed to induce TSLP production”.

Take “IL1β: pro-inflammatory cytokine used as stimulus”: in data set [6], the “MMP-1 mRNA expression” value was 5.7±1.7 fold increase vs medium condition, the “collagen1A1 mRNA” value is reported as 1.7±0.4 fold increase vs medium condition, the “collagen/collagenase ratio (COL1A1 on MMP-1 mRNA)” value is on record as 0.47±0.3 fold increase vs medium condition and the “MCP-1 mRNA expression” value is recorded as 52.7±11.2 fold increase vs medium condition. Further, the “TSLP production by dermal microvascular EC (protein)” value in data set [7] (IL1β stimulation 24 hrs, vs 7.4±3.5 pg/ml with dermal microvascular EC alone) came to 651.7 ± 95.4 pg/mL. Besides, in [7] (RTqPCR, IL1β 50 ng/mL), the “TSLP expression at the transcriptomic level” value is given as “increase the expression of TSLP”.

For `CCCSc1nc(N[C@@H]2C[C@H]2c2ccc(F)c(F)c2)c2nnn([C@@H]3C[C@H](O)[C@@H](O)[C@H]3O)c2n1` [AR-C124910XX], the “potency of active metabolite relative to ticagrelor” value in [8] is “approximately equipotent”.

As for “canakinumab: monoclonal antibody blocking IL-1β”, the “platelet-induced TSLP production” value in data set [9] (FIG. 5B, blocking antibody 10 μg/mL, vs 64.8±3.9 pg/ml without antibody) stood at 20.9 ± 3.7 pg/mL. Also, the “TSLP production in platelet/EC co-culture” value in data set [9] (HDMEC:platelets=1:200, FIG. 5D, vs 649±13.8 pg/ml in platelet/EC) stood at 335.1 ± 28.5 pg/mL.

As for “rTSLP: recombinant Thymic Stromal Lymphopoietin”, in data set [6], the “MMP-1 mRNA expression” value is 0.59±0.06 fold increase vs medium condition, the “collagen1A1 mRNA” value was 1.5±0.06 fold increase vs medium condition, the “collagen/collagenase ratio (COL1A1 on MMP-1 mRNA)” value was 2.6±0.3 fold increase vs medium condition and the “MCP-1 mRNA expression” value is 0.48±0.02 fold increase vs medium condition. Further, the “collagen/collagenase ratio in SSc fibroblasts” value in data set [6] (fibroblasts from TSLP+ fibrotic skin of two dcSSc patients, compared to lcSSc patient or normal fibroblasts) was “lower collagen/collagenase ratio”.

With `NCCc1c[nH]c2ccc(O)cc12` [serotonin, reference compound], the “TSLP production by dermal microvascular EC” value in [7] (serotonin at 90 ng/ml, vs 0.75±0.5 pg/ml for EC alone) was found to be 58.9 ± 11.4 pg/mL.

The values above are taken from patent publication US20190015397A1, “SUBSTANCE THAT INHIBITS P2Y12 RECEPTOR, FOR USE IN THE PREVENTIVE TREATMENT OF SYSTEMIC SCLEROSIS IN PATIENTS WITH RAYNAUD'S PHENOMENON AND A DYSIMMUNITY” (UNIVERSITÉ DE BORDEAUX, priority 2016, published 2019).
